Data as given in EP0555116B1, “Compositions based on antiseptics and their applications” (HUTCHINSON, priority 1992, dated 1993).

Test system: virus HIV1
Test: Infectivity of HIV1 for normal human T lymphocytes after 10 min treatment of the virus; reverse transcriptase activity (ATI) in culture supernatants
Format: cell-based
Settings: for action virucide: produit utilisé seul, 0,002
Description: Pour l'étude du pouvoir infectieux résiduel après traitement des préparations virales, le milieu de culture des lymphocytes T humains normaux (milieu complet) correspond au milieu ci-dessus auquel sont ajoutés 10 % d'interleukine II, du polybrène (2 µg/ml) et du sérum anti-interféron humain 1/2500 (M.A. REY et al., Biochem. Biophys. Res. Com., 1984, 121, 126-133).
L'infectivité est étudiée sur des lymphocytes T obtenus à partir du sang périphérique d'un donneur humain sain, et séparés sur un gradient de Ficoll.
Les lymphocytes sont stimulés pendant 3 jours par de la phytohémagglutinine P (PHA-P), diluée au 1/500 et cultivés dans du milieu complet. Les cellules T blastiques sont infectées par le virus, traité ou non, pour mettre en évidence le pouvoir infectieux résiduel.
Le virus est obtenu à partir d'un surnageant de culture de la lignée CEM infectée par HIV1. Cette lignée T lymphoblastoïde infectée par HIV1 est utilisée pour la production virale.
Le titre des surnageants utilisés est évalué après dosage de l'activité transcriptase inverse (ATI) du virus.
Dans les essais qui suivent, on a utilisé un surnageant dont l'ATI est de 1,8.10^6 cpm/ml. 2. Méthodes :
• Préparation de la solution virale : plusieurs tubes contenant 1 ml de surnageant viral, ATI 1,8.10^6 cmp/ml sont concentrés par ultracentrifugation. Les culots de virus ainsi obtenus sont repris soit par chacune des dilutions de produit réalisées dans de l'eau bidistillée stérile, soit par de l'eau (virus témoin non traité). • Traitement des préparations virales : les préparations virales concentrées sont toutes traitées selon le protocole indiqué ci-dessous : • . échantillons viraux traités : les culots de virus concentrés par ultracentrifugation sont resuspendus dans 100 µl de chacune des concentrations en produits étudiés et incubés pendant 10 minutes. • . échantillon viral témoin : témoin virus non traité : le produit est remplacé par 100 µl d'eau bidistillée stérile. A la suite de ce temps d'incubation de 10 minutes, le virus présent dans chaque échantillon est rincé puis reconcentré par addition de 12 ml de milieu RPMI 1640 et ultracentrifugation. Les culots de virus sont alors repris dans 1 ml de milieu complet et utilisés pour l'infection de lymphocytes T humains normaux. • Mesure de l'infectivité des échantillons : 4.10^6 lymphocytes T humains normaux sont infectés avec chacune des préparations virales traitées ou témoins indiquées ci-dessus. L'infection des cellules T est réalisée selon une méthode précédemment décrite (F. BARRE-SINOUSSI et al., Science, 1983, 220, 868-871) : en résumé 4.10^6 cellules en suspension dans 1 ml de milieu complet sont incubées avec 1 ml de chacune des préparations virales traitées ou témoins pendant 1 heure à 37°C. Après 2 lavages par plusieurs ml de milieu de culture, les suspensions cellulaires sont ajustées à la concentration de 1.10^6 cellules par ml. Le jour de l'infection est considéré comme jour 0. • . Cellules témoin : 4.10^6 lymphocytes T sont cultivés et passés tous les 3 ou 4 jours dans les mêmes conditions que tous les autres échantillons. Ce témoin correspond au témoin négatif de la production virale au cours de la manipulation. La production virale au cours du temps est déterminée en mesurant l'activité transcriptase inverse présente dans les surnageants de culture selon le protocole décrit ci-dessous. • . Mesure de l'activité transcriptase inverse des préparations virales témoins et des échantillons viraux traités par les produits : ce dosage permet d'évaluer la présence de virus résiduel non inactivé dans l'échantillon de départ. Il est réalisé à partir de 1 ml de surnageant de culture, prélevé tous les 3 ou 4 jours et ultracentrifugé.
Les activités enzymatiques sont mesurées dans 50 µl d'un mélange réactionnel contenant 50 mM Tris pH 7,8, 20 mM MgCl2, 20 mM KCl, 2 mM dithiotréitol, 0,25 OD/ml oligo dT, 0,25 OD/ml poly rA, 0,1 % Triton X 100 et 2,5 µCi 3H DTTP. […]

## CCCCCCCCCC[N+](C)(C)CCCCCCCCCC [Bardac®, chlorure de didécyldiméthylammonium]
Bardac® 0,01 %, J3
  ATI dans les surnageants: 334 cpm/ml
Bardac® 0,01 %, J6
  ATI dans les surnageants: 222 cpm/ml
Bardac® 0,01 %, J10
  ATI dans les surnageants: 1768 cpm/ml
Bardac® 0,01 %, J13
  ATI dans les surnageants: 1592 cpm/ml
Bardac® 0,01 %, J17
  ATI dans les surnageants: 190 cpm/ml
Bardac® 0,01 %, J20
  ATI dans les surnageants: 390 cpm/ml
Bardac® 0,01 %, J23
  ATI dans les surnageants: 1328 cpm/ml
Bardac® 0,01 %, J27
  ATI dans les surnageants: 780 cpm/ml
Bardac® 0,01 %, J30
  ATI dans les surnageants: 1000 cpm/ml
Bardac® 0,0004 %, J3
  ATI dans les surnageants: 702 cpm/ml
Bardac® 0,0004 %, J6
  ATI dans les surnageants: 18136 cpm/ml
Bardac® 0,0004 %, J10
  ATI dans les surnageants: 117326 cpm/ml
Bardac® 0,0004 %, J13
  ATI dans les surnageants: 74214 cpm/ml
Bardac® 0,0004 %, J17
  ATI dans les surnageants: 50674 cpm/ml
Bardac® 0,0004 %, J20
  ATI dans les surnageants: 22478 cpm/ml
Bardac® 0,0004 %, J23
  ATI dans les surnageants: 13806 cpm/ml
Bardac® 0,0004 %, J27
  ATI dans les surnageants: 7800 cpm/ml
Bardac® 0,0004 %, J30
  ATI dans les surnageants: 4426 cpm/ml
Bardac® 0,002 %, J3
  ATI dans les surnageants: 464 cpm/ml
Bardac® 0,002 %, J6
  ATI dans les surnageants: 2472 cpm/ml
Bardac® 0,002 %, J10
  ATI dans les surnageants: 16066 cpm/ml
Bardac® 0,002 %, J13
  ATI dans les surnageants: 24902 cpm/ml
Bardac® 0,002 %, J17
  ATI dans les surnageants: 77754 cpm/ml
Bardac® 0,002 %, J20
  ATI dans les surnageants: 75554 cpm/ml
Bardac® 0,002 %, J23
  ATI dans les surnageants: 101394 cpm/ml
Bardac® 0,002 %, J27
  ATI dans les surnageants: 80560 cpm/ml
Bardac® 0,002 %, J30
  ATI dans les surnageants: 64692 cpm/ml
Bardac® 0,004 %, J3
  ATI dans les surnageants: 346 cpm/ml
Bardac® 0,004 %, J6
  ATI dans les surnageants: 298 cpm/ml
Bardac® 0,004 %, J10
  ATI dans les surnageants: 160 cpm/ml
Bardac® 0,004 %, J13
  ATI dans les surnageants: 170 cpm/ml
Bardac® 0,004 %, J17
  ATI dans les surnageants: 350 cpm/ml
Bardac® 0,004 %, J20
  ATI dans les surnageants: 218 cpm/ml
Bardac® 0,004 %, J23
  ATI dans les surnageants: 444 cpm/ml
Bardac® 0,004 %, J27
  ATI dans les surnageants: 244 cpm/ml
Bardac® 0,004 %, J30
  ATI dans les surnageants: 264 cpm/ml
Bardac® 0,006 %, J3
  ATI dans les surnageants: 320 cpm/ml
Bardac® 0,006 %, J6
  ATI dans les surnageants: 326 cpm/ml
Bardac® 0,006 %, J10
  ATI dans les surnageants: 204 cpm/ml
Bardac® 0,006 %, J13
  ATI dans les surnageants: 248 cpm/ml
Bardac® 0,006 %, J17
  ATI dans les surnageants: 364 cpm/ml
Bardac® 0,006 %, J20
  ATI dans les surnageants: 180 cpm/ml
Bardac® 0,006 %, J23
  ATI dans les surnageants: 328 cpm/ml
Bardac® 0,006 %, J27
  ATI dans les surnageants: 588 cpm/ml
Bardac® 0,006 %, J30
  ATI dans les surnageants: 196 cpm/ml
  action virucide: ne sont pas virucides

## [H]/N=C(\N/C(=N/[H])NCCCCCCNC(=N)NC(=N)Nc1ccc(Cl)cc1)Nc1ccc(Cl)cc1 [Chlorhexidine, digluconate de chlorhexidine, reference compound]
Chlorhexidine 0,01 %, J3
  ATI dans les surnageants: 262 cpm/ml
Chlorhexidine 0,01 %, J6
  ATI dans les surnageants: 274 cpm/ml
Chlorhexidine 0,01 %, J10
  ATI dans les surnageants: 200 cpm/ml
Chlorhexidine 0,01 %, J13
  ATI dans les surnageants: 250 cpm/ml
Chlorhexidine 0,01 %, J17
  ATI dans les surnageants: 230 cpm/ml
Chlorhexidine 0,01 %, J20
  ATI dans les surnageants: 272 cpm/ml
Chlorhexidine 0,01 %, J23
  ATI dans les surnageants: 456 cpm/ml
Chlorhexidine 0,01 %, J27
  ATI dans les surnageants: 420 cpm/ml
Chlorhexidine 0,01 %, J30
  ATI dans les surnageants: 276 cpm/ml
Chlorhexidine 0,002 %, J3
  ATI dans les surnageants: 252 cpm/ml
Chlorhexidine 0,002 %, J6
  ATI dans les surnageants: 352 cpm/ml
Chlorhexidine 0,002 %, J10
  ATI dans les surnageants: 1304 cpm/ml
Chlorhexidine 0,002 %, J13
  ATI dans les surnageants: 1752 cpm/ml
Chlorhexidine 0,002 %, J17
  ATI dans les surnageants: 4288 cpm/ml
Chlorhexidine 0,002 %, J20
  ATI dans les surnageants: 6138 cpm/ml
Chlorhexidine 0,002 %, J23
  ATI dans les surnageants: 4614 cpm/ml
Chlorhexidine 0,002 %, J27
  ATI dans les surnageants: 1616 cpm/ml
Chlorhexidine 0,002 %, J30
  ATI dans les surnageants: 4528 cpm/ml
Chlorhexidine 0,005 %, J3
  ATI dans les surnageants: 360 cpm/ml
Chlorhexidine 0,005 %, J6
  ATI dans les surnageants: 374 cpm/ml
Chlorhexidine 0,005 %, J10
  ATI dans les surnageants: 580 cpm/ml
Chlorhexidine 0,005 %, J13
  ATI dans les surnageants: 742 cpm/ml
Chlorhexidine 0,005 %, J17
  ATI dans les surnageants: 1902 cpm/ml
Chlorhexidine 0,005 %, J20
  ATI dans les surnageants: 1126 cpm/ml
Chlorhexidine 0,005 %, J23
  ATI dans les surnageants: 1226 cpm/ml
Chlorhexidine 0,005 %, J27
  ATI dans les surnageants: 528 cpm/ml
Chlorhexidine 0,005 %, J30
  ATI dans les surnageants: 720 cpm/ml
  action virucide: ne sont pas virucides
